The results in this text go back to patent publication US11541055B2, “Inhibitors of human immunodeficiency virus replication” (ViiV Healthcare UK (No. 5) LIMITED, priority 2018, dated 2023).

For orientation: EC50 means the midpoint of the concentration-response curve. What is called CC50 is the concentration giving 50% cytotoxicity.

Structures are written as SMILES.

The subject of data set [1] is recombinant NL4-3 virus (Renilla luciferase) in MT-2 cells. Briefly: HIV cell culture assay (antiviral activity, luciferase readout). The data set is classed as cell-based. As to conditions: Renilla, NL43. The method in brief: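 Antiviral EC50 was derived via the median effect equation from luciferase signal. The signal came from MT-2 cultures infected for 4–5 days with a nef-deleted, Renilla luciferase-expressing NL4-3 reporter virus (made in 293T cells) in the presence of compound dilutions.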

A short description of data set [2]: Compound cytotoxicity, XTT-based colorimetric assay. The class given is cell-based. As to conditions: human; uninfected MT2 cells, day 4, XTT. The method in brief:
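Run under the antiviral-assay protocol but without virus. Viability was read on day 4 and CC50 values were derived from the readout.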
In general terms: Formazan colour is commonly taken as a measure of viable cells.

As to `Cn1nc(NS(C)(=O)=O)c2c(Cl)ccc(-n3c([C@H](Cc4cc(F)cc(F)c4)NC(=O)Cn4nc(C(F)F)c5c4C(F)(F)[C@@H]4C[C@H]54)nc4cc(-c5ccccc5S(=O)(=O)C(C)(C)C)ccc4c3=O)c21` [Example 32, N—((S)-1-(7-(2-(tert-butylsulfonyl)phenyl)-(3P)-3-(4-chloro-1-methyl-3-(methylsulfonamido)-1H-indazol-7-yl)-4-oxo-3,4-dihydroquinazolin-2-yl)-2-(3,5-difluorophenyl)ethyl)-2-((3bS,4aR)-3-(difluoromethyl)-5,5-difluoro-3b,4,4a,5-tetrahydro-1H-cyclopropa[3,4]cyclopenta[1,2-c]pyrazol-1-yl)acetamide], the half-maximal effective concentration (EC50) in data set [1] came to 0.11 nM. The compound further showed a half-maximal cytotoxic concentration (CC50) at 4 days in data set [2] of over 500 nM.
On the same counts, the results for `Cc1cc(C(C)C)nc(-c2ccc3c(=O)n(-c4ccc(Cl)c5c(NS(C)(=O)=O)nn(C)c45)c([C@H](Cc4cc(F)cc(F)c4)NC(=O)Cn4nc(C(F)F)c5c4C(F)(F)[C@@H]4C[C@H]54)nc3c2)n1` (atropisomer, axis not shown; (P)) [Example 37, N—((S)-1-((3P)-3-(4-chloro-1-methyl-3-(methylsulfonamido)-1H-indazol-7-yl)-7-(4-isopropyl-6-methylpyrimidin-2-yl)-4-oxo-3,4-dihydroquinazolin-2-yl)-2-(3,5-difluorophenyl)ethyl)-2-((3bS,4aR)-3-(difluoromethyl)-5,5-difluoro-3b,4,4a,5-tetrahydro-1H-cyclopropa[3,4]cyclopenta[1,2-c]pyrazol-1-yl)acetamide] are 0.16 nM and over 500 nM.
Turning to `CCc1ccnc(-c2ccc3c(=O)n(-c4ccc(Cl)c5c(NS(C)(=O)=O)nn(CC(F)(F)F)c45)c([C@H](Cc4cc(F)cc(F)c4)NC(=O)Cn4nc(C(F)F)c5c4C(F)(F)[C@@H]4C[C@H]54)nc3c2)n1` (atropisomer, axis not shown) [Example 111, N-[(1S)-1-{3-[4-chloro-3-methanesulfonamido-1-(2,2,2-trifluoroethyl)-1H-indazol-7-yl]-7-(4-ethylpyrimidin-2-yl)-4-oxo-3,4-dihydroquinazolin-2-yl}-2-(3,5-difluorophenyl)ethyl]-2-[(2S,4R)-9-(difluoromethyl)-5,5-difluoro-7,8-diazatricyclo[4.3.0.0^2,^4]nona-1(6),8-dien-7-yl]acetamide], the EC50 in data set [1] stood at 0.11 nM. In data set [2], the half-maximal cytotoxic concentration (CC50) at 4 days is over 500 nM.
The like results for `CS(=O)(=O)Nc1nn(CC(F)F)c2c(-n3c([C@H](Cc4cc(F)cc(F)c4)NC(=O)Cn4nc(C(F)F)c5c4C(F)(F)[C@@H]4C[C@H]54)nc4cc(-c5cccnn5)ccc4c3=O)ccc(Cl)c12` (atropisomer, axis not shown) [Example 135, N-[(1S)-1-{3-[4-chloro-1-(2,2-difluoroethyl)-3-methanesulfonamido-1H-indazol-7-yl]-4-oxo-7-(pyridazin-3-yl)-3,4-dihydroquinazolin-2-yl}-2-(3,5-difluorophenyl)ethyl]-2-[(2S,4R)-9-(difluoromethyl)-5,5-difluoro-7,8-diazatricyclo[4.3.0.0^2,^4]nona-1(6),8-dien-7-yl]acetamide] were, in that order, 0.054 nM and over 500 nM.
On the same counts, the results for `CCc1cc(-c2ccc3c(=O)n(-c4ccc(C)c5c(NS(C)(=O)=O)nn(C)c45)c([C@H](Cc4cc(F)cc(F)c4)NC(=O)Cn4nc(C(F)F)c5c4C(F)(F)[C@@H]4C[C@H]54)nc3c2)nc(C)n1` (atropisomer, axis not shown) [Example 139, 2-[(2S,4R)-9-(difluoromethyl)-5,5-difluoro-7,8-diazatricyclo[4.3.0.0^2,^4]nona-1(6),8-dien-7-yl]-N-[(1S)-2-(3,5-difluorophenyl)-1-[7-(6-ethy1-2-methylpyrimidin-4-yl)-3-(3-methanesulfonamido-1,4-dimethyl-1H-indazol-7-yl)-4-oxo-3,4-dihydroquinazolin-2-yl]ethyl]acetamide] are 0.13 nM and over 500 nM.
The like results for `O=C(Cn1nc(C(F)F)c2c1C(F)(F)[C@@H]1C[C@H]21)N[C@@H](Cc1cc(F)cc(F)c1)c1nc2cc(-c3cccnn3)ccc2c(=O)n1-c1ccc(Cl)c2c(NS(=O)(=O)C3CC3)nn(CC(F)F)c12` (atropisomer, axis not shown; (P)) [Example 89, N—((S)-1-((3P)-3-(4-chloro-3-(cyclopropanesulfonamido)-1-(2,2-difluoroethyl)-1H-indazol-7-yl)-4-oxo-7-(pyridazin-3-yl)-3,4-dihydroquinazolin-2-yl)-2-(3,5-difluorophenyl)ethyl)-2-((3bS,4aR)-3-(difluoromethyl)-5,5-difluoro-3b,4,4a,5-tetrahydro-1H-cyclopropa[3,4]cyclopenta[1,2-c]pyrazol-1-yl)acetamide] were, in that order, 0.075 nM and over 500 nM.
For the compound `COc1cc(C(F)(F)F)nc(-c2ccc3c(=O)n(-c4ccc(Cl)c5c(NS(C)(=O)=O)nn(C)c45)c([C@H](Cc4cc(F)cc(F)c4)NC(=O)Cn4nc(C(F)F)c5c4C(F)(F)[C@@H]4C[C@H]54)nc3c2)n1` (atropisomer, axis not shown; (P)) [Example 54, N—((S)-1-((3P)-3-(4-chloro-1-methyl-3-(methylsulfonamido)-1H-indazol-7-yl)-7-(4-methoxy-6-(trifluoromethyl)pyrimidin-2-yl)-4-oxo-3,4-dihydroquinazolin-2-yl)-2-(3,5-difluorophenyl)ethyl)-2-((3bS,4aR)-3-(difluoromethyl)-5,5-difluoro-3b,4,4a,5-tetrahydro-1H-cyclopropa[3,4]cyclopenta[1,2-c]pyrazol-1-yl)acetamide], the EC50 in data set [1] stood at 0.31 nM. The same compound had a CC50 at 4 days in data set [2] of over 500 nM.
The like results for `CC(C)c1nccnc1-c1ccc2c(=O)n(-c3ccc(Cl)c4c(NS(C)(=O)=O)nn(C)c34)c([C@H](Cc3cc(F)cc(F)c3)NC(=O)Cn3nc(C(F)F)c4c3C(F)(F)[C@@H]3C[C@H]43)nc2c1` (atropisomer, axis not shown; (P)) [Example 16, N—((S)-1-((3P)-3-(4-chloro-1-methyl-3-(methylsulfonamido)-1H-indazol-7-yl)-7-(3-isopropylpyrazin-2-yl)-4-oxo-3,4-dihydroquinazolin-2-yl)-2-(3,5-difluorophenyl)ethyl)-2-((3bS,4aR)-3-(difluoromethyl)-5,5-difluoro-3b,4,4a,5-tetrahydro-1H-cyclopropa[3,4]cyclopenta[1,2-c]pyrazol-1-yl)acetamide] were, in that order, 0.12 nM and over 500 nM.
Turning to `Cc1nc(C)c(C)c(-c2ccc3c(=O)n(-c4ccc(Cl)c5c(NS(C)(=O)=O)nn(CC(F)(F)F)c45)c([C@H](Cc4cc(F)cc(F)c4)NC(=O)Cn4nc(C(F)F)c5c4C(F)(F)[C@@H]4C[C@H]54)nc3c2)n1` (atropisomer, axis not shown) [Example 109, N-[(1S)-1-{3-[4-chloro-3-methanesulfonamido-1-(2,2,2-trifluoroethyl)-1H-indazol-7-yl]-4-oxo-7-(2,5,6-trimethylpyrimidin-4-yl)-3,4-dihydroquinazolin-2-yl}-2-(3,5-difluorophenyl)ethyl]-2-[(2S,4R)-9-(difluoromethyl)-5,5-difluoro-7,8-diazatricyclo[4.3.0.0^2,^4]nona-1(6),8-dien-7-yl]acetamide], the EC50 in data set [1] came to 0.11 nM. Moreover, the cytotoxic concentration (CC50) at 4 days in data set [2] was over 500 nM.
Regarding `Cc1cc(C(F)(F)F)cc(-c2ccc3c(=O)n(-c4ccc(Cl)c5c(NS(C)(=O)=O)nn(C)c45)c([C@H](Cc4cc(F)cc(F)c4)NC(=O)Cn4nc(C(F)F)c5c4C(F)(F)[C@@H]4C[C@H]54)nc3c2)n1` (atropisomer, axis not shown; (P)) [Example 48, N—((S)-1-((3P)-3-(4-chloro-1-methyl-3-(methylsulfonamido)-1H-indazol-7-yl)-7-(6-methyl-4-(trifluoromethyl)pyridin-2-yl)-4-oxo-3,4-dihydroquinazolin-2-yl)-2-(3,5-difluorophenyl)ethyl)-2-((3bS,4aR)-3-(difluoromethyl)-5,5-difluoro-3b,4,4a,5-tetrahydro-1H-cyclopropa[3,4]cyclopenta[1,2-c]pyrazol-1-yl)acetamide], the concentration giving a half-maximal response (EC50) in data set [1] turned out to be 0.5 nM. In addition, the CC50 at 4 days in data set [2] was over 500 nM.
Turning to `CS(=O)(=O)Nc1nn(CC(F)F)c2c(-n3c([C@H](Cc4cc(F)cc(F)c4)NC(=O)Cn4nc(C(F)F)c5c4C(F)(F)[C@@H]4C[C@H]54)nc4cc(-c5nccc(C(F)F)n5)ccc4c3=O)ccc(Cl)c12` (atropisomer, axis not shown) [Example 132], the EC50 in data set [1] amounted to 0.06 nM. This compound also gave a CC50 at 4 days in data set [2] of over 500 nM.
Regarding `Cn1nc(NS(C)(=O)=O)c2c(Cl)ccc(-n3c([C@H](Cc4cc(F)cc(F)c4)NC(=O)Cn4nc(C(F)F)c5c4C(F)(F)[C@@H]4C[C@H]54)nc4cc(-c5ccnc(C6CCCC6)n5)ccc4c3=O)c21` (atropisomer, axis not shown; (P)) [Example 73, N—((S)-1-((3P)-3-(4-chloro-1-methyl-3-(methylsulfonamido)-1H-indazol-7-yl)-7-(2-cyclopentylpyrimidin-4-yl)-4-oxo-3,4-dihydroquinazolin-2-yl)-2-(3,5-difluorophenyl)ethyl)-2-((3bS,4aR)-3-(difluoromethyl)-5,5-difluoro-3b,4,4a,5-tetrahydro-1H-cyclopropa[3,4]cyclopenta[1,2-c]pyrazol-1-yl)acetamide], in data set [1], the concentration for a half-maximal effect (EC50) amounted to 0.96 nM. The CC50 at 4 days in data set [2] is over 500 nM.
As to `Cc1cc(C)nc(-c2ccc3c(=O)n(-c4ccc(Cl)c5c(NS(C)(=O)=O)nn(CC(F)F)c45)c([C@H](Cc4cc(F)cc(F)c4)NC(=O)Cn4nc(C(F)F)c5c4C(F)(F)[C@@H]4C[C@H]54)nc3c2)c1` (atropisomer, axis not shown) [Example 137, N-[(1S)-1-{3-[4-chloro-1-(2,2-difluoroethyl)-3-methanesulfonamido-1H-indazol-7-yl]-7-(4,6-dimethylpyridin-2-yl)-4-oxo-3,4-dihydroquinazolin-2-yl}-2-(3,5-difluorophenyl)ethyl]-2-[(2S,4R)-9-(difluoromethyl)-5,5-difluoro-7,8-diazatricyclo[4.3.0.0^2,^4]nona-1(6),8-dien-7-yl]acetamide], in data set [1], the EC50 is 0.2 nM. This compound also registered a 50% cytotoxic concentration (CC50) at 4 days in data set [2] of over 500 nM.
